According to US11104619B2, “Mixture for treating fertilizers containing urea” (EuroChem Agro GmbH, priority 2015, dated 2021):
Like-named read-outs stand apart in the source and are kept apart here.

Assays:
nitrification [1] = test: Soil incubation trial: cumulative laughing gas (N2O-N) emission; conditions: 77 mg N applied; for N2O—N cumulative, % of appl.: cumulative over 28 days
urease [2] = test: Screening trials: hydrolysis of urea in soil; conditions: first few days of application; with DMPSA present
nitrification [3] = test: Soil incubation trial: nitrate formed from applied urea N; conditions: Filder loam, 20° C., label gives UI/NI fraction of recommended rate
Method: % of the urea applied (13 mg N)

nitrification [4] = test: Soil incubation trial: recovery of applied urea N as ammonium; conditions: for percentage recovery in the form of ammonium, % of applied urea (13 mg N): 28 days after application, Filder loam pH 6.8, 20° C., 200 kg urea N/ha, label gives UI/NI fraction of recommended rate (0.6 g NBPT, 3.6 g DMPSA per kg urea)
Method: % of applied urea (13 mg N)
A determination was carried out 28 days after application of the urea, with the percentage recovery in the form of ammonium being reported.

urease [5] = conditions: for Ammonia emission, % of the urea applied (77 mg N): Filder loam, 20° C., label gives UI/NI fraction of recommended rate
Method: Screening trials were conducted to evaluate the effect of DMPSA and NBPT in the inhibition of urease and inhibition of nitrification, and to find suitable quantities for use. Serving for this purpose was a two-factorial trial design including an unfertilized control sample. For the urease inhibitor NBPT and for the nitrification inhibitor DMPSA, in each case 0%, 33%, 66% and 100% of the application rates recommended for the individual compounds when used alone were used (in this example, 0.6 g of NBPT per kg of urea and, respectively, 3.6 g of DMPSA per kg of urea), giving 16 trials (0%-0% to 100%-100%), in addition to the unfertilized control sample.
Urea fertilizer was delivered in an amount of 200 kg nitrogen per ha, corresponding to 0.51 mg of urea nitrogen per g of soil. The soil used was Filder loam with a pH of 6.8. The incubation trials were carried out at 20° C. For the investigation of trace gases, air supply was passed first through a gas sample, then through a 250 ml capacity glass bottle containing 150 g of soil, subsequently through a gas sample for the outgoing air and through an acid trap, in order, for example, to determine amounts of ammonia. For the measurement of nitrogen, about 20 g of soil were incubated; for the measurement of urea, about 5 g of soil.

With `CCCCNP(N)(N)=S` [NBPT, N-(n-butyl)thiophosphoric triamide] the “N2O—N cumulative” value (nitrification [1]; 0 days after appl., 150 g soil) was 0 μg N2O—N Bottle^1, the “N2O—N cumulative” value (nitrification [1]; 0.5 days after appl.) was 0 μg N2O—N Bottle^1 and the “N2O—N cumulative” value (nitrification [1]; 1 day after appl., listed as UI-1_NI-0) was 2 μg N2O—N Bottle^1. For the same compound, the “N2O—N cumulative” value (nitrification [1]; 1 day after appl., listed as UI-2_NI-0) was 1 μg N2O—N Bottle^1, the “N2O—N cumulative” value (nitrification [1]; 1 day after appl., listed as UI-3_NI-0) was 2 μg N2O—N Bottle^1 and the “N2O—N cumulative” value (nitrification [1]; 2 days after appl., listed as UI-1_NI-0) was 3 μg N2O—N Bottle^1. For the same compound, the “N2O—N cumulative” value (nitrification [1]; 2 days after appl., listed as UI-2_NI-0) was 2 μg N2O—N Bottle^1, the “N2O—N cumulative” value (nitrification [1]; 2 days after appl., listed as UI-3_NI-0) was 7 μg N2O—N Bottle^1 and the “N2O—N cumulative” value (nitrification [1]; 3 days after appl., listed as UI-1_NI-0) was 4 μg N2O—N Bottle^1. For the same compound, the “N2O—N cumulative” value (nitrification [1]; 3 days after appl., listed as UI-2_NI-0) was 3 μg N2O—N Bottle^1, the “N2O—N cumulative” value (nitrification [1]; 3 days after appl., listed as UI-3_NI-0) was 10 μg N2O—N Bottle^1 and the “N2O—N cumulative” value (nitrification [1]; 4 days after appl., listed as UI-1_NI-0) was 5 μg N2O—N Bottle^1. The “N2O—N cumulative” value (nitrification [1]; 4 days after appl., listed as UI-2_NI-0) was 3 μg N2O—N Bottle^1, the “N2O—N cumulative” value (nitrification [1]; 4 days after appl., listed as UI-3_NI-0) was 11 μg N2O—N Bottle^1 and the “N2O—N cumulative” value (nitrification [1]; 5 days after appl., listed as UI-1_NI-0) was 7 μg N2O—N Bottle^1. The “N2O—N cumulative” value (nitrification [1]; 5 days after appl., listed as UI-2_NI-0) was 4 μg N2O—N Bottle^1, the “N2O—N cumulative” value (nitrification [1]; 5 days after appl., listed as UI-3_NI-0) was 12 μg N2O—N Bottle^1 and the “N2O—N cumulative” value (nitrification [1]; 6 days after appl., listed as UI-1_NI-0) was 16 μg N2O—N Bottle^1. For the same compound, the “N2O—N cumulative” value (nitrification [1]; 6 days after appl., listed as UI-2_NI-0) was 8 μg N2O—N Bottle^1, the “N2O—N cumulative” value (nitrification [1]; 6 days after appl., listed as UI-3_NI-0) was 13 μg N2O—N Bottle^1 and the “N2O—N cumulative” value (nitrification [1]; 8 days after appl., listed as UI-1_NI-0) was 32 μg N2O—N Bottle^1. The “N2O—N cumulative” value (nitrification [1]; 8 days after appl., listed as UI-2_NI-0) was 16 μg N2O—N Bottle^1, the “N2O—N cumulative” value (nitrification [1]; 8 days after appl., listed as UI-3_NI-0) was 20 μg N2O—N Bottle^1 and the “N2O—N cumulative” value (nitrification [1]; 10 days after appl., listed as UI-1_NI-0) was 48 μg N2O—N Bottle^1. For the same compound, the “N2O—N cumulative” value (nitrification [1]; 10 days after appl., listed as UI-2_NI-0) was 36 μg N2O—N Bottle^1, the “N2O—N cumulative” value (nitrification [1]; 10 days after appl., listed as UI-3_NI-0) was 31 μg N2O—N Bottle^1 and the “N2O—N cumulative” value (nitrification [1]; 12 days after appl., listed as UI-1_NI-0) was 75 μg N2O—N Bottle^1. The “N2O—N cumulative” value (nitrification [1]; 12 days after appl., listed as UI-2_NI-0) was 67 μg N2O—N Bottle^1, the “N2O—N cumulative” value (nitrification [1]; 12 days after appl., listed as UI-3_NI-0) was 52 μg N2O—N Bottle^1 and the “N2O—N cumulative” value (nitrification [1]; 14 days after appl., listed as UI-1_NI-0) was 122 μg N2O—N Bottle^1. For the same compound, the “N2O—N cumulative” value (nitrification [1]; 14 days after appl., listed as UI-2_NI-0) was 125 μg N2O—N Bottle^1, the “N2O—N cumulative” value (nitrification [1]; 14 days after appl., listed as UI-3_NI-0) was 90 μg N2O—N Bottle^1 and the “N2O—N cumulative” value (nitrification [1]; 17 days after appl., listed as UI-1_NI-0) was 144 μg N2O—N Bottle^1. For the same compound, the “N2O—N cumulative” value (nitrification [1]; 17 days after appl., listed as UI-2_NI-0) was 145 μg N2O—N Bottle^1, the “N2O—N cumulative” value (nitrification [1]; 17 days after appl., listed as UI-3_NI-0) was 99 μg N2O—N Bottle^1 and the “N2O—N cumulative” value (nitrification [1]; 18 days after appl., listed as UI-1_NI-0) was 179 μg N2O—N Bottle^1. For the same compound, the “N2O—N cumulative” value (nitrification [1]; 18 days after appl., listed as UI-2_NI-0) was 190 μg N2O—N Bottle^1, the “N2O—N cumulative” value (nitrification [1]; 18 days after appl., listed as UI-3_NI-0) was 125 μg N2O—N Bottle^1 and the “N2O—N cumulative” value (nitrification [1]; 20 days after appl., listed as UI-1_NI-0) was 203 μg N2O—N Bottle^1. The “N2O—N cumulative” value (nitrification [1]; 20 days after appl., listed as UI-2_NI-0) was 215 μg N2O—N Bottle^1, the “N2O—N cumulative” value (nitrification [1]; 20 days after appl., listed as UI-3_NI-0) was 141 μg N2O—N Bottle^1 and the “N2O—N cumulative” value (nitrification [1]; 22 days after appl., listed as UI-1_NI-0) was 238 μg N2O—N Bottle^1. The “N2O—N cumulative” value (nitrification [1]; 22 days after appl., listed as UI-2_NI-0) was 249 μg N2O—N Bottle^1, the “N2O—N cumulative” value (nitrification [1]; 22 days after appl., listed as UI-3_NI-0) was 156 μg N2O—N Bottle^1 and the “N2O—N cumulative” value (nitrification [1]; 24 days after appl., listed as UI-1_NI-0) was 343 μg N2O—N Bottle^1. For the same compound, the “N2O—N cumulative” value (nitrification [1]; 24 days after appl., listed as UI-2_NI-0) was 312 μg N2O—N Bottle^1, the “N2O—N cumulative” value (nitrification [1]; 24 days after appl., listed as UI-3_NI-0) was 174 μg N2O—N Bottle^1 and the “N2O—N cumulative” value (nitrification [1]; 28 days after appl., listed as UI-1_NI-0) was 497 μg N2O—N Bottle^1. The “N2O—N cumulative” value (nitrification [1]; 28 days after appl., listed as UI-2_NI-0) was 397 μg N2O—N Bottle^1, the “N2O—N cumulative” value (nitrification [1]; 28 days after appl., listed as UI-3_NI-0) was 194 μg N2O—N Bottle^1 and the “N2O—N cumulative, % of appl.” value (nitrification [1]; listed as UI-1_NI-0) was 0.65 % of appl. For the same compound, the “N2O—N cumulative, % of appl.” value (nitrification [1]; listed as UI-2_NI-0) was 0.52 % of appl, the “N2O—N cumulative, % of appl.” value (nitrification [1]; listed as UI-3_NI-0) was 0.25 % of appl and the “inhibition of the hydrolysis of urea” value (urease [2]) was “sufficiently inhibits the hydrolysis of urea”. For the same compound, the “Nitrate, % of the urea applied (13 mg N)” value (nitrification [3]; 5 days after application, listed as UI 1 NI 0) was 11%, the “Nitrate, % of the urea applied (13 mg N)” value (nitrification [3]; 5 days after application, listed as UI ⅓ NI 0) was 10% and the “Nitrate, % of the urea applied (13 mg N)” value (nitrification [3]; 5 days after application, listed as UI ⅔ NI 0) was 11%. The “Nitrate, % of the urea applied (13 mg N)” value (nitrification [3]; 28 days after application, listed as UI 1 NI 0) was 52%, the “Nitrate, % of the urea applied (13 mg N)” value (nitrification [3]; 28 days after application, listed as UI ⅓ NI 0) was 58% and the “Nitrate, % of the urea applied (13 mg N)” value (nitrification [3]; 28 days after application, listed as UI ⅔ NI 0) was 64%. For the same compound, the “percentage recovery in the form of ammonium, % of applied urea (13 mg N)” value (nitrification [4]; listed as UI 1 NI 0) was 28%, the “percentage recovery in the form of ammonium, % of applied urea (13 mg N)” value (nitrification [4]; listed as UI ⅓ NI 0) was 9% and the “percentage recovery in the form of ammonium, % of applied urea (13 mg N)” value (nitrification [4]; listed as UI ⅔ NI 0) was 21%. The “supplementary influence on ammonium recovery” value (nitrification [4]; after 28 days) was “no supplementary influence”, the “reduction in ammonia emissions” value (urease [5]; 66% NBPT, especially 9 days after application) was “notable and almost complete reduction in ammonia emissions” and the “Ammonia emission, % of the urea applied (77 mg N)” value (shortened to “Ammonia emission, %”) (urease [5]; 4 days after application, listed as UI 1 NI 0) was 0.0%. For the same compound, the “Ammonia emission, %” value (urease [5]; 4 days after application, listed as UI ⅓ NI 0) was 0.3%, the “Ammonia emission, %” value (urease [5]; 4 days after application, listed as UI ⅔ NI 0) was 0.1% and the “Ammonia emission, %” value (urease [5]; 9 days after application, listed as UI 1 NI 0) was 0.0%. For the same compound, the “Ammonia emission, %” value (urease [5]; 9 days after application, listed as UI ⅓ NI 0) was 1.1%, the “Ammonia emission, %” value (urease [5]; 9 days after application, listed as UI ⅔ NI 0) was 0.2% and the “effect on the increase in ammonia emission caused by the nitrification inhibitor” value (urease [5]; addition of NBPT) was “prevent the increase in ammonia emission”.
